Experimental data from ChEMBL document CHEMBL1146406, “Inhibition of Bacterial RNA Polymerases. Peptide Metabolites from the Cultures of Streptomyces sp” (J Nat Prod, 1997).
pIC50: −log10 of the molar value. Active and inactive are the calls of the source. The calls are words filed in the database; no cut-off is given here. Numbered stars: 1 amine (or outer) side, 2 acyl side, 3 side chain; on linkers, the order of the positions; unused ones are H or OH. Bridge positions count the residues as written; N and C are the ends. Square brackets hold non-standard residues; d marks the D form. Peptide text beside a SMILES is read from it. * marks the point of attachment. X2 = C[C@H](Oc1ccc([C@H](N[*:1])C(=O)[*:2])cc1)[C@@]1(/C=C/C(=O)[*:3])CO1; X1 = CC(C)[C@H](O)[C@H](C)C(=O)*; aIle = CC[C@@H](C)[C@H](N)C(=O)O; dNMeF = CN[C@H](Cc1ccccc1)C(=O)O; aThr = C[C@H](O)[C@H](N)C(=O)O

Assays:
[1] = tested on: Escherichia coli; experiment: (§1) Inhibition of Escherichia coli RNA polymerase by high throughput filtration assay
[2] = tested on: Staphylococcus aureus; experiment: (§2) Inhibition of Staphylococcus aureus RNA polymerase by high throughput filtration assay
[3] = as §1
[4] = as §2
[5] = species on record: Homo sapiens; experiment: Inhibition of human RNA polymerase

| Structure (SMILES) | Activity [1] | Activity [2] | pIC50 [3] | pIC50 [4] | Activity [5] |
| --- | --- | --- | --- | --- | --- |
| CC[C@@H](C)[C@@H]1NC(=O)[C@@H](CC(C)C)NC(=O)[C@H](CC(C)C)NC(=O)[C@H](Cc2c[nH]c3ccccc23)NC(=O)CNC(=O)[C@H](CC(N)=O)NC1=O (cyclo(GWL[dL][aIle]N)) | inactive | inactive | – | – | – |
| CC[C@@H](C)[C@@H]1NC(=O)[C@H](NC(=O)[C@@H](C)[C@@H](O)C(C)C)[C@H](C)OC(=O)[C@H]2COC(=O)CNC(=O)/C=C/[C@@]3(CO3)[C@H](C)Oc3ccc(cc3)[C@H](NC1=O)C(=O)N(C)[C@H](Cc1ccccc1)C(=O)N[C@@H]([C@H](C)O)C(=O)N2 [SALINAMIDE A] (X1-[dT][aIle][X2][dNMeF][aThr][dS]; ester 1-C; linker 3-6 via G) | – | – | 6.30 | 6.30 | inactive |
